Measurements from patent publication US11440904B2, “Substituted pyrimidines, pharmaceutical compositions and therapeutic methods thereof” (priority 2017, dated 2022).

What was measured:
BTK wt = BTK wt (Homo sapiens (Human), UniProt Q06187); experiment: 33P ATP HotSpot kinase assay, BTK wt; assay type: biochemical; settings: 10 μM ATP
Source text: (See, e.g., Ma, et al, 2008 Expert Opin Drug Discov. 3(6): 607-621.)

FAK = FAK (Homo sapiens (Human), UniProt Q05397); experiment: 33P ATP HotSpot kinase assay, FAK; settings: read-out: IC50 FAK, 10 μM ATP
FAK, sequence (Q05397 whole entry): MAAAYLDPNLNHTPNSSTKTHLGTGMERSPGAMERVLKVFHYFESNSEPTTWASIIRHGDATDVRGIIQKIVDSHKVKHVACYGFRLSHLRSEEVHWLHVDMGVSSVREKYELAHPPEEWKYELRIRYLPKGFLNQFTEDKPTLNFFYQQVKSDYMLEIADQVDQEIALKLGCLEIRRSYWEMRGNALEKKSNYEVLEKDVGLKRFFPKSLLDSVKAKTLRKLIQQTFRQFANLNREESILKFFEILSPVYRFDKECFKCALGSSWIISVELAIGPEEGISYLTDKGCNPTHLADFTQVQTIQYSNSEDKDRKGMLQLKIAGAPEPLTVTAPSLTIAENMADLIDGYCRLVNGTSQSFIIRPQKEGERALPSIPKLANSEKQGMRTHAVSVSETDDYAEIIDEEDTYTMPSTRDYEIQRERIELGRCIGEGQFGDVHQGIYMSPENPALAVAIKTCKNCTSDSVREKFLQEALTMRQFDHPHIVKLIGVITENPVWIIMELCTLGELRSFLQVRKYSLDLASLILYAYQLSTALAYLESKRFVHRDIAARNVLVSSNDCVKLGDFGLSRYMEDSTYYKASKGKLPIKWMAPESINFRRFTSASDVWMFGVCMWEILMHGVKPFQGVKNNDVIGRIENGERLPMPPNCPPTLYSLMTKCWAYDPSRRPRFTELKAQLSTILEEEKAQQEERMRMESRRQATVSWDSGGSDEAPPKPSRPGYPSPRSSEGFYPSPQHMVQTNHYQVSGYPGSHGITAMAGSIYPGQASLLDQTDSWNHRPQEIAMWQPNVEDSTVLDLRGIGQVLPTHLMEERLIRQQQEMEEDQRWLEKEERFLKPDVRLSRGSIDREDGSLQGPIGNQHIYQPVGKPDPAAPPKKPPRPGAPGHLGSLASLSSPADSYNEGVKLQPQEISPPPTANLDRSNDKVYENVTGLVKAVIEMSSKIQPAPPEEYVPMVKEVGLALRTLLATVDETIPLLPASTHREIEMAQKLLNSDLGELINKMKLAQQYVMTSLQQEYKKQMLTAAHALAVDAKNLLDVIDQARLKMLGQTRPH

EGFR wt = EGFR wt (Homo sapiens (Human), UniProt P00533); experiment: 33P ATP HotSpot kinase assay, EGFR wt; assay type: biochemical; settings: 10 μM ATP
EGFR wt, sequence (P00533 25-1210): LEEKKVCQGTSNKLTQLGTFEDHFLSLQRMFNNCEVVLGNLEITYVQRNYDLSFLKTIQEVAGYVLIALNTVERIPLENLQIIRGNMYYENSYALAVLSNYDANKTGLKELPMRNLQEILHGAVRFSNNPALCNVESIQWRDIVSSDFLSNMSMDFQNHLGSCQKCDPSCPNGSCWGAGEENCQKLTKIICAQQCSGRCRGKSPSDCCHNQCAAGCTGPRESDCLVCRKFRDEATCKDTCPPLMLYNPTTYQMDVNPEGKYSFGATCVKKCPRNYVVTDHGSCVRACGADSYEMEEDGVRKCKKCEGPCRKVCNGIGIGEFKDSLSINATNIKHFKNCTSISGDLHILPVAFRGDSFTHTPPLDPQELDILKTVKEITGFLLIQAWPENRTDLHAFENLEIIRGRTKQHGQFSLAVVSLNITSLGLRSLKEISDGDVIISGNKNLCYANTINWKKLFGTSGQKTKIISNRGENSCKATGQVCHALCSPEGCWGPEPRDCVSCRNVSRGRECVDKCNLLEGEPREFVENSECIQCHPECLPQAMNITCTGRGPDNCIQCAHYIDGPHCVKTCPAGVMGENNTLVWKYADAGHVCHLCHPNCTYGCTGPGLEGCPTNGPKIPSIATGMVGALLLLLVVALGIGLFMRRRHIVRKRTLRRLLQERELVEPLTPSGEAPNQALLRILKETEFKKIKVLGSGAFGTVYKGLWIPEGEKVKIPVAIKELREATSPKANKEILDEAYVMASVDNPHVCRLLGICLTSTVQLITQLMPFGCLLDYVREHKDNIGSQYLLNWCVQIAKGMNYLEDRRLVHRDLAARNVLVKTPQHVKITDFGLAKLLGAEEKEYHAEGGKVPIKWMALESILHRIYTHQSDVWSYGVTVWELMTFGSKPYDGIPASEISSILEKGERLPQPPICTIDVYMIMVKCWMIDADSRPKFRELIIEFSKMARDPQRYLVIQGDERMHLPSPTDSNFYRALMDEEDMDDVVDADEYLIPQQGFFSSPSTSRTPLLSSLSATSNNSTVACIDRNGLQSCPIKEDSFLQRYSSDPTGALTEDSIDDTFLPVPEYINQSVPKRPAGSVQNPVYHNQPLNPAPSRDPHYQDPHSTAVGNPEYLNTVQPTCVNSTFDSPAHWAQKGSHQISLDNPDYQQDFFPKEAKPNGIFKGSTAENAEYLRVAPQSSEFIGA
Description: Then, Kinase assays were performed using the “HotSpot” assay platform.
Briefly, specific kinase/substrate pairs along with required cofactors were prepared in reaction buffer; 20 mM Hepes pH 7.5, 10 mM MgCl2, 1 mM EGTA, 0.02% Brij35, 0.02 mg/ml BSA, 0.1 mM Na3VO4, 2 mM DTT, 1% DMSO. Compounds were delivered into the reaction, followed about 20 minutes later by addition of a mixture of ATP (Sigma, St. Louis Mo.) and ^33P ATP (Perkin Elmer, Waltham Mass.) to a final concentration of 10 μM.
Reactions were carried out at room temperature for 120 min, followed by spotting of the reactions onto P81 ion exchange filter paper (Whatman Inc., Piscataway, N.J.). Unbound phosphate was removed by extensive washing of filters in 0.75% phosphoric acid. […] IC50 values and curve fits were obtained using Prism (GraphPad Software).

BTK wt, sequence (Q06187 whole entry): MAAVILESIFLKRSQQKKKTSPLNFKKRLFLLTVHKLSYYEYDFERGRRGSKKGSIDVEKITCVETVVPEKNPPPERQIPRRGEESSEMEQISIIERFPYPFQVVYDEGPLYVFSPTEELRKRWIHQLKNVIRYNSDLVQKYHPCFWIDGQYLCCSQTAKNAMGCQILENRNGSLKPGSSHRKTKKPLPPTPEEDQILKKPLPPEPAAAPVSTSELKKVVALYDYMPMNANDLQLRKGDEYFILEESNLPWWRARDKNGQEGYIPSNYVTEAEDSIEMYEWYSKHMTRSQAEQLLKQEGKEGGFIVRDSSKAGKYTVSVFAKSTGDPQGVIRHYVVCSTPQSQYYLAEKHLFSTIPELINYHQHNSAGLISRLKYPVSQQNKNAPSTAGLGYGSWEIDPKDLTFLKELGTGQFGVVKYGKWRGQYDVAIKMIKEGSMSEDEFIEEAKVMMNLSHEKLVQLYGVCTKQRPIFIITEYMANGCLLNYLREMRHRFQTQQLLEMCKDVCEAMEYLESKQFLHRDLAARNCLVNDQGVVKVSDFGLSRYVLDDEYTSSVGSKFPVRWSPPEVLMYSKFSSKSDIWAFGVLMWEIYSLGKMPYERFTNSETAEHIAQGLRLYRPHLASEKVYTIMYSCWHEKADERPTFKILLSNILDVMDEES

CC(=O)Nc1cc(C)ccc1Nc1nc(Nc2ccc3c(c2)OCCOCCOCCO3)nc2[nH]cnc12 [Compound-27, N-[5-methyl-2-[[2-(2,5,8,11-tetraoxabicyclo[10.4.0]hexadeca-1(12),13,15-trien-14-ylamino)-9H-purin-6-yl]amino]phenyl]acetamide]
IC50 (BTK wt): 16.8 nM

CC(=O)Nc1cc(C(F)(F)F)ccc1Nc1nc(Nc2ccc3c(c2)OCCOCCOCCO3)nc2[nH]cnc12 [Compound-29, N-[2-[[2-(2,5,8,11-tetraoxabicyclo[10.4.0]hexadeca-1(12),13,15-trien-14-ylamino)-9H-purin-6-yl]amino]-5-(trifluoromethyl)phenyl]acetamide]
IC50 (BTK wt): 67.1 nM

CC(=O)Nc1cc(F)ccc1Nc1nc(Nc2ccc3c(c2)OCCOCCOCCO3)nc2[nH]cnc12 [Compound-28, N-[5-fluoro-2-[[2-(2,5,8,11-tetraoxabicyclo[10.4.0]hexadeca-1(12),13,15-trien-14-ylamino)-9H-purin-6-yl]amino]phenyl]acetamide]
IC50 (BTK wt): 9.37 nM

CN([C@@H]1c2ccccc2C[C@H]1Oc1cc(Nc2ccc3c(c2)OCCOCCOCCO3)ncc1C(F)(F)F)S(C)(=O)=O [Compound-32, N-methyl-N-[(1R,2R)-2-[[2-(2,5,8,11-tetraoxabicyclo[10.4.0]hexadeca-1(12),13,15-trien-14-ylamino)-5-(trifluoromethyl)-4-pyridyl]oxy]indan-1-yl]methanesulfonamide]
IC50 (BTK wt): > 10000 nM

C=CC(=O)Nc1cccc(-c2nc(Nc3ccc4c(c3)OCCOCCOCCO4)ncc2F)c1 [Compound-30, N-[3-[5-fluoro-2-(2,5,8,11-tetraoxabicyclo[10.4.0]hexadeca-1(12),13,15-trien-14-ylamino)pyrimidin-4-yl]phenyl]prop-2-enamide]
IC50 (FAK): > 1000 nM
IC50 (BTK wt): 613 nM

c1cc(Nc2nc(Nc3ccc4c(c3)OCCOCCOCCO4)nc3[nH]cnc23)c2[nH]ccc2c1 [Compound-23, N6-(1H-indol-7-yl)-N2-(2,5,8,11-tetraoxabicyclo[10.4.0]hexadeca-1(12),13,15-trien-14-yl)-9H-purine-2,6-diamine]
IC50 (EGFR wt): > 1000 nM
IC50 (FAK): 257 nM
IC50 (BTK wt): 62.8 nM

C=CC(=O)Nc1cc(C)ccc1Nc1nc(Nc2ccc3c(c2)OCCOCCOCCO3)nc2[nH]ncc12 [Compound-26, N-[5-methyl-2-[[6-(2,5,8,11-tetraoxabicyclo[10.4.0]hexadeca-1(12),13,15-trien-14-ylamino)-1H-pyrazolo[3,4-d]pyrimidin-4-yl]amino]phenyl]prop-2-enamide]
IC50 (BTK wt): 33.3 nM

CN([C@@H]1c2ccccc2C[C@H]1Oc1nc(Nc2ccc3c(c2)OCCOCCOCCO3)nc2[nH]cnc12)S(C)(=O)=O [Compound-31, N-methyl-N-[(1R,2R)-2-[[2-(2,5,8,11-tetraoxabicyclo[10.4.0]hexadeca-1(12),13,15-trien-14-ylamino)-9H-purin-6-yl]oxy]indan-1-yl]methanesulfonamide]
IC50 (BTK wt): 198 nM
